Patent US9161895B1, “Compositions and methods for improving overall tooth health and appearance” (The Procter & Gamble Company, priority 2008, dated 2015)

Experiments:
[1] = in vitro erosion cycling protocol (citric acid challenge, transverse microradiography); parameters: species or system human; settings: for Surface Loss: aqueous solutions of test organophosphates (control: dentifrice slurry 1:3) in pooled human saliva, 1% citric acid 10 min, 4 treatments/day, 5 days, depth of total mineral loss by TMR; for % reduction vs. regular F control: reduction in surface mineral loss relative to Fluoride toothpaste (1100 ppm F), aqueous solutions
Protocol: The effectiveness of compositions of the present invention containing an organophosphate was evaluated according to the following in vitro erosion cycling protocol.
Tooth (dentin or enamel) specimens are prepared by cutting 3 mm-4 mm cores from extracted, human teeth using a diamond core drill. The teeth, collected by local surgeons, are stored until use in a 5% Thymol solution maintained at room temperature. Specimens are mounted on lucite rods with a dental acrylic (Dura Base, Reliance Mfg. Co.) covering all sides except the surface. Course polishing with 600-grit silicon carbide-water slurry is used to remove approximately 50 microns of the outer specimen surface to ensure homogeneity among specimens. Specimens are then polished with gamma alumina (Buehler No. 3, B Gamma Micropolish Alumina) to a mirror-like finish.
Approximately ⅔ of the surface of each specimen is then covered with an acid resistant nail polish (placed in a mesial-distal fashion), leaving the center portion exposed as a treatment window. Covered portions remain covered with the acid-resistant nail polish throughout the experiment, serving as the control (untreated) areas for later microradiographic analysis. Specimens are randomly assigned to one of four treatment groups (4 specimens/group).
Each group of specimens is placed in 20 ml of fresh, pooled human saliva for at least one hour to form an initial layer of pellicle on the specimen surfaces prior to first day of treatment. To begin the treatment phase, aqueous solutions of the test organophosphates and dentifrice slurry (1:3) of the control fluoride toothpaste are prepared in fresh, pooled human saliva. Each treatment cycle consists of: dentifrice slurry (2 min)→rinse in deionized distilled H2O→saliva (1 hour)→erosion challenge (10 min)→rinse in ddiH2O→saliva. There are 4 treatments per day for a total of five treatment days. Dentifrice treatments consist of immersing the specimens into the dentifrice slurry for two minutes while specimens rotate at 75 rpm. The erosion challenge consists of soaking each treatment group in 12 ml of 1% Citric acid (at room temperature). At any time specimens are not in treatment, they remain in 20 ml of pooled, human saliva (stirred). The saliva is refreshed 3×/day. At night, each group of specimens remains immersed in saliva (stirred at room temperature).
After 5 days of treatment, thin cross-sections (80-120 μm thick) of each specimen are removed for assessment using standardized transverse microradiography (TMR) techniques. The exposed, treated area of each specimen is assessed with respect to complete mineral loss (erosion). Results with simple aqueous solutions of various alkyl phosphate compounds are presented in Table 1 as depth (in microns) of total mineral loss from the original specimen surface using the covered (untreated) areas as anatomical reference points. For comparison, percent reduction in surface mineral loss is calculated relative to water or fluoride containing compositions.

[2] = compatibility of organophosphate additives with stannous fluoride solutions: visual inspection and soluble tin in supernatant; type: physicochemical
Protocol: Aqueous formulations of polyvalent metal antibacterial agents were prepared and evaluated for clarity, chemical content and performance when mixed with various organophosphate additives as described above. The compositions comprise stannous fluoride as an example of polyvalent metal cation in combination with sodium gluconate or sodium tripolyphosphate as stabilizer and organophosphate additives. The compositions also contained zinc. […] Following addition of additives, the solutions were immediately inspected for any visual changes and then analyzed for soluble tin in the supernatants after centrifugation.

[3] = tested on: total aerobes (pooled saliva inoculum); test: bacterial time kill assay of CPC mouthrinse formulations; type: cell-based; settings: 30 seconds
[4] = stannous fluoride/sodium gluconate solution, additive 0.2%
[5] = stannous fluoride/sodium tripolyphosphate solution, additive 0.08%
[6] = stannous fluoride/sodium gluconate solution, additive 1.0%
[7] = stannous fluoride/sodium tripolyphosphate solution, additive 1.0%
[8] = mouthrinse: organophosphate additive 0.05%, CPC 0.05%
[9] = mouthrinse: organophosphate additive 0.1%, CPC 0.1%
[10] = 0.454% stannous fluoride/0.6% sodium gluconate solution, additive 2.0%
[11] = 0.454% stannous fluoride/3.0% sodium tripolyphosphate solution, additive 2.0%
[12] = stannous fluoride/sodium gluconate solution, additive 0.5%

With Potassium C12/13 phosphate [MAP 230K] the “Surface Loss” value [1] was 10.50 μm, the “% reduction vs. regular F control” value [1] was 68.89% and the “Soluble Tin” value [2, 4] was 2015 ppm. For the same substance, the “Visual Inspection” value [2, 4] was “Slight precipitate”, the “Soluble Tin” value [2, 5] was 2814 ppm and the “Visual Inspection” value [2, 5] was “Slight precipitate”. For the same substance, the “Log Reduction vs. water control” value ([3]; mouthrinse: organophosphate additive 0.0335%, CPC 0.0165%) was −0.05 and the “Log Reduction vs. water control” value ([3]; mouthrinse: organophosphate additive 0.04%, CPC 0.01%) was −0.01.
In the case of Laureth 3 phosphate [Foamphos L-3], the “Surface Loss” value [1] is reported as 13.25 μm, the “% reduction vs. regular F control” value [1] is reported as 60.74% and the “Soluble Tin” value [2, 6] is reported as 1371 ppm. For the same substance, the “Visual Inspection” value [2, 6] was “Slight precipitate”, the “Soluble Tin” value [2, 7] was 3496 ppm and the “Visual Inspection” value [2, 7] was “Slight hazy”. The “Log Reduction vs. water control” value [3, 8] was 2.04 and the “Log Reduction vs. water control” value [3, 9] was 2.05.
With Laureth-9 phosphate [Foamphos L-9] the “clarity of stannous fluoride solutions (in words)” value [2] was “clear solutions”, the “soluble stannous (in words)” value [2] was “high levels of soluble stannous” and the “Soluble Tin” value [2, 10] was 3145 ppm. For the same substance, the “Visual Inspection” value [2, 10] was “Slight hazy”, the “Soluble Tin” value [2, 11] was 2511 ppm and the “Visual Inspection” value [2, 11] was “Clear”. For the same substance, the “Log Reduction vs. water control” value [3, 8] was 2.76, the “Log Reduction vs. water control” value ([3]; mouthrinse: organophosphate additive 0.1%, CPC 0.05%) was 2.76 and the “Log Reduction vs. water control” value [3, 9] was 2.76.
For “PPG5 ceteareth-10 phosphate [CrodaphosSG]”, the “Surface Loss” value [1] was 18.50 μm and the “% reduction vs. regular F control” value [1] was 45.19%.
In the case of Laureth-1 phosphate [MAP L210], the “Surface Loss” value [1] is reported as 25.75 μm, the “% reduction vs. regular F control” value [1] is reported as 23.70% and the “Soluble Tin” value [2, 11] is reported as 1888 ppm. The “Visual Inspection” value [2, 11] was “Slight precipitate”, the “Soluble Tin” value [2, 12] was 1419 ppm and the “Visual Inspection” value [2, 12] was “Slight precipitate”.
In the case of “Trilaureth-4 phosphate [Hostaphat KL 340D]”, the “Surface Loss” value [1] is reported as 22.50 μm and the “% reduction vs. regular F control” value [1] is reported as 33.33%.
For Sodium diLaureth-10 phosphate [DLP-10], the “Soluble Tin” value [2, 10] was 2886 ppm and the “Visual Inspection” value [2, 10] was “Clear”.
